According to patent EP2656853A1, “METHOD FOR TREATING ACUTE CEREBRAL AND SPINAL BLOOD FLOW DISORDERS OF AN ISCHAEMIC OR HA[…]” (Zakrytoe Aktsionernoe Obschestvo "Pharm-Sintez", priority 2010, dated 2012):

How the values were obtained:
[1] = system: murine bone marrow cells; conditions: positive control, 20 mg/kg intraperitoneally, male mice
Source text: The Study purpose was to reveal and quantitatively assess the cytogenetic activity (mutagenicity) of the pharmacologic drugs in the mammalian bone marrow polychromatophils. The method's base is the micronuclei cells microscopic registration.
The experimental used the male and female F1(CBAx C57BI6/J) hybrid mice, two-month age, 18 to 20 grams body weight. Every group included 6 animals. The animals were kept under the 12-hour light regime, with freely available water and food. The single and five fold administration protein-polypeptide complex mutagenicity assessment animal experiments were in compliance with the official protocols. Three experimental series with relevant controls were performed: therapeutic dosage: males, single administration; subtoxic dosage: males, single administration; and therapeutic dosage: males and females, five fold administration. […]
(§1) The bone marrow cells preparations for the micronuclei account were made in conventional manner, in accordance with the "Micronuclear Test Environmental Factors Mutagenicity Assessment in Mammalian Organs Cells" Guidelines. […] 2000 polychromatophils per animal were then analyzed with coded preparations. At the 500 erythrocytes count the polychromatophil to normochromatic erythrocytes ratio was determined.

[2] = system: murine bone marrow cells; conditions: positive control, 20 mg/kg intraperitoneally, male mice; remark: listed apart in the source
Source text: The Study purpose is to reveal and quantitatively assess the cytogenetic activity (mutagenicity) of the pharmacologic drugs in the mammalian bone marrow polychromatophils. The method's base is the micronuclei cells microscopic registration.
The experimental used the male and female F1(CBAx C57BI6/J) hybrid mice, two-month age, 18 to 20 grams body weight. Every group included 6 animals. The animals were kept under the 12-hour light regime, with freely available water and feed. The single and five fold administration protein-polypeptide complex mutagenicity assessment animal experiments were in compliance with the official protocols. Three experimental series with relevant controls were performed: therapeutic dosage: males, single administration; subtoxic dosage: males, single administration; and therapeutic dosage: males and females, five fold administration. […]
as §1

## O=P1(N(CCCl)CCCl)NCCCO1 (stereo not shown) [cyclophosphamide]
[1]
  higher micronuclei cells vs. control: 19.6 fold
[1]; control 3.16‰
  micronuclei cells: 62.1 ‰
[2]
  higher micronuclei cells count vs. control: 19.6 fold
[2]; control 3.16‰
  micronuclei cells count: 62.1 ‰
